Reference: paper PMC8482815, “Targeting Host Glycolysis as a Strategy for Antimalarial Development” (Frontiers in Cellular and Infection Microbiology, 2021)
Several values for one entry are separate records, joined by “and”; a condition that tells them apart may be missing. Equal entries are not always repeated.

System: human erythrocytes
Assay: Untargeted metabolomics and 13C-glucose tracing of enolase inhibitor treated erythrocytes
Type: cell-based
Conditions: 0.5h
Experimental: Freshly collected erythrocytes were washed, resuspended to 10% hematocrit in buffer [25mM HEPES (pH 7.4), 120mM NaCl, 5.4mM KCl, 1.8mM CaCl2, and 1mM NaH2PO4], incubated for 1 hour at 37°C, then centrifuged at 2000xg for 5 minutes at 4°C, resuspended in fresh wash buffer to 30-40% hematocrit, and split into 210µL aliquots of packed erythrocytes. […] All samples were incubated at 37°C shaking at 500 RPM. Triplicate samples of supernatants and packed erythrocytes were collected at 0, 0.5, 1, and 6-hour intervals and snap-frozen in liquid N2.
RBC and media samples were extracted at 1:10 and 1:20 dilutions, respectively, in 5:3:2 MeOH : MeCN:H2O v/v/v, and supernatants analyzed on a Thermo Vanquish UHPLC coupled to a Thermo Q Exactive mass spectrometer, as extensively described ([Nemkov et al., 2015]; [Nemkov et al., 2017]). The extraction buffer was supplemented with 40uM 3-^13C lactate to allow absolute quantification of lactate isotopologues, including lactate generated via glycolysis ([1,2,3-^13C3] enriched) vs. the pentose phosphate pathway ([2,3-^13C2] enriched), as described ([Reisz et al., 2016]). Metabolite assignments, peak area integration and isotopologues distributions were determined using Maven (Princeton University) ([Nemkov et al., 2015]; [Nemkov et al., 2017]).
Data were auto-scaled and normalized to zero-hour time points. Metabolites were removed from the dataset if greater than 50% of the samples contained missing values or the relative standard deviation among replicates exceeded 25%. Additionally, data was filtered using the interquartile range to reduce near-constant values from the experiment by 5%.
A principal component analysis of preprocessed data was plotted with the 95% confidence interval minimum volume enclosing ellipsoid for each respective group (MetaboAnalyst, cluster, plotly). A two-way repeated measures analysis of variance (ANOVA) was performed with multiple comparisons corrected for using a false discovery rate p-value cutoff of 0.05. Metabolite-Pathway analysis was performed using the R package of MetaboAnalyst, as previously described ([Xia and Wishart, 2010]). Metabolite-Protein nodal analysis was performed using omicsnet.ca and as previously described ([Zhou and Xia, 2018]).

[1] = treated erythrocytes, one value per replicate sample, polarity +
[2] = treated erythrocytes, one value per replicate sample, polarity -
[3] = treated erythrocytes, replicate samples

CC(C)(C)C(=O)OCOP(=O)(OCOC(=O)C(C)(C)C)C1CC(O)N(O)C1=O (stereo not shown) [POMSF]
AMP level (metabolomics signal) (replicate samples): 2.22E+06 and 1.69E+06 and 1.24E+06
ATP level (metabolomics signal) (replicate samples): 6.37E+03 and 8.43E+03 and 5.73E+03
Adenine level (metabolomics signal) (replicate samples): 1.92E+05 and 1.77E+05 and 1.67E+05
Cytosine level (metabolomics signal) (replicate samples): 5.62E+05 and 5.81E+05 and 5.75E+05
L-alanine level (metabolomics signal) (replicate samples): 8.49E+06 and 9.99E+06 and 1.01E+07
L-arginine level (metabolomics signal) (replicate samples): 8.18E+06 and 5.94E+06 and 8.91E+06
L-asparagine level (metabolomics signal) (replicate samples): 3.70E+06 and 4.01E+06 and 4.49E+06
L-aspartate level (metabolomics signal) (replicate samples): 3.38E+07 and 3.70E+07 and 4.18E+07
L-cysteine level (metabolomics signal) (replicate samples): 5.61E+05 and 2.55E+05 and 1.58E+05
L-glutamate level (metabolomics signal) (replicate samples): 3.26E+07 and 3.43E+07 and 3.68E+07
L-glutamine level (metabolomics signal) (replicate samples): 3.77E+07 and 4.04E+07 and 5.11E+07
L-histidine level (metabolomics signal) (replicate samples): 1.39E+06 and 1.38E+06 and 1.35E+06
L-isoleucine level (metabolomics signal) (replicate samples): 1.79E+07 and 1.67E+07 and 1.69E+07
L-leucine level (metabolomics signal) (replicate samples): 1.70E+08 and 1.83E+08 and 2.03E+08
L-lysine level (metabolomics signal) (replicate samples): 2.70E+06 and 2.39E+06 and 2.59E+06
L-methionine level (metabolomics signal) (replicate samples): 1.52E+07 and 1.66E+07 and 1.85E+07
L-phenylalanine level (metabolomics signal) (replicate samples): 8.08E+06 and 8.86E+06 and 1.12E+07
L-proline level (metabolomics signal) (replicate samples): 4.22E+07 and 3.45E+07 and 3.96E+07
L-serine level (metabolomics signal) (replicate samples): 2.93E+06 and 2.66E+06 and 3.79E+06
L-threonine level (metabolomics signal) (replicate samples): 5.71E+06 and 5.05E+06 and 5.98E+06
L-tryptophan level (metabolomics signal) (replicate samples): 5.93E+06 and 3.78E+06 and 4.71E+06
L-tyrosine level (metabolomics signal) (replicate samples): 1.94E+07 and 2.09E+07 and 2.16E+07
L-valine level (metabolomics signal) (replicate samples): 1.34E+08 and 1.45E+08 and 1.42E+08
dCMP level (metabolomics signal) (replicate samples): 1.87E+04 and 1.84E+04 and 1.76E+04
dTMP level (metabolomics signal) (replicate samples): 1.29E+06 and 8.42E+05 and 1.18E+06
glycine level (metabolomics signal) (replicate samples): 1.56E+06 and 1.61E+06 and 1.75E+06
N-Acyl-D-aspartate (C06380) metabolite signal [1]: 2.47E+05 and 3.01E+05 and 2.50E+05
Poly-gamma-D-glutamate (C05723) metabolite signal [1]: 2.49E+07 and 2.77E+07 and 3.43E+07
D-Ribitol 5-phosphate (C01068) metabolite signal [2]: 1.89E+04 and 2.70E+04 and 1.78E+04
D-glucono-1,5-lactone (C00198) metabolite signal [2]: 5.20E+05 and 6.45E+05 and 5.70E+05
L-Noradrenaline (C00547) metabolite signal [2]: 5.30E+04 and 6.26E+04 and 5.84E+04
Oxalosuccinate (C05379) metabolite signal [2]: 1.60E+05 and 1.51E+05 and 1.30E+05
Pyridoxamine (C00534) metabolite signal [2]: 4.35E+04 and 3.15E+04 and 3.96E+04
Thioredoxin disulfide (C00343) metabolite signal [2]: 4.45E+04 and 2.53E+04 and 3.52E+04
1-4-beta-D-Xylan (metabolite signal) [3]: 2.42E+05 and 2.55E+05 and 2.51E+05
2-Hydroxyglutarate/Citramalate (C02630) metabolite signal [3]: 8.78E+04 and 9.72E+04 and 1.18E+05
5-6-Dihydrothymine (C00906) metabolite signal [3]: 3.10E+05 and 2.80E+05 and 2.87E+05
5-10-Methenyltetrahydrofolate (metabolite signal) [3]: 3.54E+05 and 4.17E+05 and 3.24E+05
5-Hydroxyisourate (C11821) metabolite signal [3]: 5.17E+06 and 5.16E+06 and 5.68E+06
5-L-Glutamyl-taurine (metabolite signal) [3]: 1.45E+05 and 1.54E+05 and 1.36E+05
5-Oxoproline (metabolite signal) [3]: 8.54E+05 and 9.65E+05 and 9.67E+05
(S)(+)-Allantoin (C02350) metabolite signal [3]: 4.35E+04 and 3.58E+04 and 0.00E+00
Allantoate (C00499) metabolite signal [3]: 2.71E+05 and 2.04E+05 and 2.56E+05
Ascorbate (metabolite signal) [3]: 9.30E+04 and 6.85E+04 and 1.08E+05
CMP-N-acetylneuraminate (metabolite signal) [3]: 1.38E+04 and 2.26E+04 and 3.45E+04
Carnosine (metabolite signal) [3]: 2.64E+05 and 2.93E+05 and 2.91E+05
Citrate (C00158) metabolite signal [3]: 2.63E+04 and 3.23E+04 and 3.56E+04
Creatine (metabolite signal) [3]: 2.99E+08 and 3.28E+08 and 3.02E+08
Creatinine (metabolite signal) [3]: 3.46E+06 and 3.25E+06 and 2.95E+06
Cys-Gly (metabolite signal) [3]: 2.55E+06 and 2.28E+06 and 2.13E+06
D-Glucosamine (metabolite signal) [3]: 1.73E+05 and 2.02E+05 and 1.88E+05
D-Glucose (C00031) metabolite signal [3]: 6.07E+06 and 5.64E+06 and 6.25E+06
D-Ribose (C00121) metabolite signal [3]: 1.75E+05 and 2.10E+05 and 1.84E+05
Dehydroascorbate (metabolite signal) [3]: 1.78E+04 and 9.28E+03 and 1.77E+04
Dihydrofolate (metabolite signal) [3]: 1.24E+06 and 6.72E+05 and 1.27E+06
Dimethylglycine (metabolite signal) [3]: 1.14E+06 and 1.17E+06 and 1.06E+06
Diphosphate (C00013) metabolite signal [3]: 3.26E+03 and 1.34E+03 and 1.52E+03
Fumarate (C00122) metabolite signal [3]: 1.08E+05 and 1.33E+05 and 1.27E+05
Glutathione (C00051) metabolite signal [3]: 1.64E+08 and 1.52E+08 and 1.45E+08
Glutathione disulfide (metabolite signal) [3]: 1.36E+05 and 2.52E+05 and 3.91E+05
Hypoxanthine (C00262) metabolite signal [3]: 6.53E+04 and 4.36E+04 and 3.66E+04
IMP (C00130) metabolite signal [3]: 9.13E+04 and 0.00E+00 and 4.11E+04
Inosine (C00294) metabolite signal [3]: 9.07E+04 and 1.09E+05 and 1.15E+05
L-Citrulline (metabolite signal) [3]: 3.18E+06 and 3.52E+06 and 3.48E+06
L-Homoserine (metabolite signal) [3]: 2.14E+05 and 2.01E+05 and 2.23E+05
Lactate (C01432) metabolite signal [3]: 9.04E+06 and 8.73E+06 and 8.57E+06
Malate (C00149) metabolite signal [3]: 1.84E+05 and 2.15E+05 and 2.30E+05
Mannitol (C00392) metabolite signal [3]: 1.48E+05 and 1.43E+05 and 1.44E+05
N-Acetylneuraminate (metabolite signal) [3]: 2.84E+04 and 2.76E+04 and 2.63E+04
N-Glycoloyl-neuraminate (metabolite signal) [3]: 1.80E+05 and 1.43E+05 and 1.72E+05
NAD+ (C00003) metabolite signal [3]: 7.76E+04 and 1.99E+05 and 4.14E+05
Nicotinamide (C00153) metabolite signal [3]: 3.69E+07 and 3.94E+07 and 3.72E+07
Ornithine (metabolite signal) [3]: 2.34E+06 (2×) and 2.32E+06
Oxaloacetate (C00036) metabolite signal [3]: 4.10E+04 and 3.82E+04 and 3.53E+04
Phosphoserine (metabolite signal) [3]: 5.43E+04 and 2.60E+05 and 7.13E+04
Putrescine (metabolite signal) [3]: 8.30E+04 and 7.12E+04 and 6.80E+04
Pyridoxal (C00250) metabolite signal [3]: 7.95E+04 and 8.76E+04 and 8.42E+04
Pyruvate (C00022) metabolite signal [3]: 6.67E+05 and 7.32E+05 and 6.75E+05
S-Glutathionyl-L-cysteine (metabolite signal) [3]: 6.44E+04 and 8.58E+04 and 2.21E+05
Sedoheptulose 1-phosphate (C06222) metabolite signal [3]: 1.56E+04 and 1.68E+04 and 1.80E+04
Spermidine (metabolite signal) [3]: 9.65E+06 and 9.19E+06 and 9.18E+06
Spermine (metabolite signal) [3]: 9.74E+06 and 8.90E+06 and 1.00E+07
Succinate (C00042) metabolite signal [3]: 9.57E+04 and 9.51E+04 and 9.45E+04
Thymidine (C00214) metabolite signal [3]: 1.34E+04 and 1.17E+04 and 1.87E+04
UDP (C00015) metabolite signal [3]: 2.09E+05 and 1.18E+05 and 1.38E+05
UDP-N-acetyl-D-glucosamine (metabolite signal) [3]: 1.55E+04 and 2.01E+04 and 2.26E+04
UDP-glucose (C00029) metabolite signal [3]: 3.09E+04 and 3.55E+04 and 4.15E+04
Urate (C00366) metabolite signal [3]: 3.51E+04 and 2.72E+04 and 2.68E+04
Xanthine (C00385) metabolite signal [3]: 3.66E+05 and 3.57E+05 and 3.29E+05
alpha-D-Glucosamine 1-phosphate (metabolite signal) [3]: 2.09E+06 and 2.40E+06 and 2.18E+06
alpha-D-Ribose 1-phosphate (C00620) metabolite signal [3]: 1.08E+05 and 8.84E+04 and 1.07E+05
gamma-Glutamyl-gamma-aminobutyrate (metabolite signal) [3]: 9.93E+04 and 1.32E+05 and 1.00E+05
gamma-L-Glutamyl-D-alanine (metabolite signal) [3]: 3.99E+04 and 3.09E+04 and 3.31E+04
gamma-L-Glutamyl-L-cysteine (metabolite signal) [3]: 1.39E+04 and 2.39E+04 and 2.36E+04
